Measured values published in patent US20210230203A1, “Amphiphilic Kanamycin Compositions and Methods” (priority 2020, published 2021).
≈ marks a conversion by molar mass, not a printed value.

How the values were obtained:
[1] = system: Fusarium; assay: MIC against various species, CLSI M27 & M38 (Table 4); assay type: cell-based; details: 24-72 hours
[2] = system: L. prolificans; assay: as above; details: L. prolificans LP1; Table 4; RPMI 0.165M MOPS; 24-72 hours
[3] = system: E. coli (25922); assay: MIC against bacterial strains; assay type: cell-based
[4] = system: Coccidioldes sp.; assay: microbe, parasite or virus in culture; assay type: cell-based, Coccidioides species; details: Table 3, RPMI 0.165M MOPS, 24-72 hours
[5] = system: C. albicans; assay: MIC against various species, CLSI M27 & M38 (Table 4); details: 24-72 hours
[6] = system: C. krusei; assay: as above; details: C. krusei AC ATCC 6258; Table 4; RPMI 0.165M MOPS; 24-72 hours
[7] = system: Saksenaea sp.; assay: MIC against filamentous and dimorphic fungi, CLSI M27 & M38 (Table 3); assay type: cell-based, Saksenaea species; details: 24-72 hours
[8] = system: Fusarium graminearum B4-5A; assay: microbe, parasite or virus in culture; assay type: cell-based; details: Fusarium graminearum B4-5A
[9] = system: S. aureus (ATCC 43300) MRSA; assay type: cell-based
[10] = system: S. aureus (ATCC 25923); assay: MIC against bacterial strains; assay type: cell-based
[11] = system: C. auris; assay: MIC against various species, CLSI M27 & M38 (Table 4); details: 24-72 hours
[12] = C. albicans CA1, RPMI 0.165M MOPS
[13] = C. albicans CA2, RPMI 0.165M MOPS
[14] = C. albicans CA3, RPMI 0.165M MOPS
[15] = Saksenaea sp. SK1, RPMI 0.165M MOPS
[16] = Saksenaea sp. SK2, RPMI 0.165M MOPS
[17] = Saksenaea sp. SK3, RPMI 0.165M MOPS
[18] = C. auris DI17-46, RPMI 0.165M MOPS
[19] = C. auris DI17-47, RPMI 0.165M MOPS
[20] = C. auris DI17-48, RPMI 0.165M MOPS

## CCCCCCCCCCCCCCCC(=O)NC[C@H]1O[C@H](O[C@H]2[C@H](O)[C@@H](O[C@H]3O[C@H](CO)[C@@H](O)[C@H](N)[C@H]3O)[C@H](N)C[C@@H]2N)[C@H](O)[C@@H](O)[C@@H]1O [KI06]
[1]; Fusarium FO1, RPMI 0.165M MOPS
  Minimum inhibitory concentration 50%: 8 µg/mL (≈ 11.1 µM)
  Minimum inhibitory concentration 100%: 8 µg/mL (≈ 11.1 µM)
[1]; Fusarium FO2, RPMI 0.165M MOPS
  Minimum inhibitory concentration 50%: 4 µg/mL (≈ 5.53 µM)
  Minimum inhibitory concentration 100%: 8 µg/mL (≈ 11.1 µM)
[1]; Fusarium FS1, RPMI 0.165M MOPS
  Minimum inhibitory concentration 50%: 4 µg/mL (≈ 5.53 µM)
  Minimum inhibitory concentration 100%: 8 µg/mL (≈ 11.1 µM)
[2]
  Minimum inhibitory concentration 50%: 2 µg/mL (≈ 2.77 µM)
  Minimum inhibitory concentration 100%: 2 µg/mL (≈ 2.77 µM)
[3]
  Minimum inhibitory concentration: 32 µg/mL (≈ 44.3 µM)
[4]; Coccidioldes sp. Cocci1
  Minimum inhibitory concentration 50%: 4 µg/mL (≈ 5.53 µM)
  Minimum inhibitory concentration 100%: 8 µg/mL (≈ 11.1 µM)
[4]; Coccidioldes sp. Cocci2
  Minimum inhibitory concentration 50%: 4 µg/mL (≈ 5.53 µM)
  Minimum inhibitory concentration 100%: 8 µg/mL (≈ 11.1 µM)
[4]; Coccidioldes sp. DI17-143
  Minimum inhibitory concentration 50%: 4 µg/mL (≈ 5.53 µM)
  Minimum inhibitory concentration 100%: 8 µg/mL (≈ 11.1 µM)
[5]; [12]
  Minimum inhibitory concentration 50%: 4 µg/mL (≈ 5.53 µM)
  Minimum inhibitory concentration 100%: 4 µg/mL (≈ 5.53 µM)
[5]; [13]
  Minimum inhibitory concentration 50%: 4 µg/mL (≈ 5.53 µM)
  Minimum inhibitory concentration 100%: 8 µg/mL (≈ 11.1 µM)
[5]; [14]
  Minimum inhibitory concentration 50%: 2 µg/mL (≈ 2.77 µM)
  Minimum inhibitory concentration 100%: 4 µg/mL (≈ 5.53 µM)
[6]
  Minimum inhibitory concentration 50%: 4 µg/mL (≈ 5.53 µM)
  Minimum inhibitory concentration 100%: 8 µg/mL (≈ 11.1 µM)
[7]; [15]
  Minimum inhibitory concentration 50%: 1 µg/mL (≈ 1.38 µM)
  Minimum inhibitory concentration 100%: 1 µg/mL (≈ 1.38 µM)
[7]; [16]
  Minimum inhibitory concentration 50%: 1 µg/mL (≈ 1.38 µM)
  Minimum inhibitory concentration 100%: 2 µg/mL (≈ 2.77 µM)
[7]; [17]
  Minimum inhibitory concentration 50%: 1 µg/mL (≈ 1.38 µM)
  Minimum inhibitory concentration 100%: 2 µg/mL (≈ 2.77 µM)
[8]
  Minimum inhibitory concentration: 4 µg/mL (≈ 5.53 µM)
[9]
  Minimum inhibitory concentration: 16 µg/mL (≈ 22.1 µM)
[10]
  Minimum inhibitory concentration: 16 µg/mL (≈ 22.1 µM)
[11]; [18]
  Minimum inhibitory concentration 50%: 4 µg/mL (≈ 5.53 µM)
  Minimum inhibitory concentration 100%: 8 µg/mL (≈ 11.1 µM)
[11]; [19]
  Minimum inhibitory concentration 50%: 2 µg/mL (≈ 2.77 µM)
  Minimum inhibitory concentration 100%: 4 µg/mL (≈ 5.53 µM)
[11]; [20]
  Minimum inhibitory concentration 50%: 1 µg/mL (≈ 1.38 µM)
  Minimum inhibitory concentration 100%: 4 µg/mL (≈ 5.53 µM)
